Measured values as given in ChEMBL document CHEMBL1152764, “Penicilliols A and B, novel inhibitors specific to mammalian Y-family DNA polymerases” (Bioorg Med Chem, 2009).
Activity calls are given as the source filed them.

What was measured:
[1] = tested on: Brassica oleracea var. botrytis; test: Inhibition of cauliflower DNA polymerase alpha at 100 uM
[2] = tested on: Oncorhynchus masou; test: Inhibition of cherry salmon DNA polymerase delta at 100 uM
[3] = target: DNA nucleotidylexotransferase (Bos taurus) (UniProt P06526); test: Inhibition of calf terminal deoxynucleotidyltransferase at 100 uM
Sequence of DNA nucleotidylexotransferase (Bos taurus) (P06526 whole entry): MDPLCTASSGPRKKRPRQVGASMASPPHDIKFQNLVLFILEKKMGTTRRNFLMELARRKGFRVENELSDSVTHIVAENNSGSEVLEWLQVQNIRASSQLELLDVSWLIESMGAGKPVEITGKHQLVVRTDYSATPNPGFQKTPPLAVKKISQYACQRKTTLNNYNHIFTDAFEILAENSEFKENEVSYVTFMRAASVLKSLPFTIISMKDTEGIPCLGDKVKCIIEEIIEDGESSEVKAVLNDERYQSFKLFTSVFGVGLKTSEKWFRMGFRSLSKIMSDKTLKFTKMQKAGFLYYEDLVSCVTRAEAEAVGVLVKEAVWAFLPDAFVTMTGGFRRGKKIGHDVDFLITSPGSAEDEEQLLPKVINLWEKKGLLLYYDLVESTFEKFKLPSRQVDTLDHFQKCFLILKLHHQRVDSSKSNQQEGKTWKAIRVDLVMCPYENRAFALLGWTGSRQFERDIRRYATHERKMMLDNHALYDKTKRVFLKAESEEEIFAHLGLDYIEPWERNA

[4] = target: Polynucleotide kinase (Enterobacteria phage T4) (UniProt P06855); test: Inhibition of Enterobacteria phage T4 Polynucleotide kinase at 100 uM; conditions: Tequatrovirus T4
Sequence of Polynucleotide kinase (Enterobacteria phage T4) (P06855 whole entry): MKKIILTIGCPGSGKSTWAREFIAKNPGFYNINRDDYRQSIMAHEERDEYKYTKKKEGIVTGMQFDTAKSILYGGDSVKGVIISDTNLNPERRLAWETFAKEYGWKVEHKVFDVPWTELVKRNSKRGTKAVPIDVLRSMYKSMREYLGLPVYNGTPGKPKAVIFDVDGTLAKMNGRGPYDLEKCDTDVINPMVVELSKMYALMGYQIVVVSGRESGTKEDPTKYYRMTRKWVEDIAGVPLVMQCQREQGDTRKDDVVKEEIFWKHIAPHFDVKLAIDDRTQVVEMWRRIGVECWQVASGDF

[5] = species: Bos taurus; test: Inhibition of calf DNA polymerase alpha at 100 uM
[6] = target: T1, DNA polymerase eta (Homo sapiens) (UniProt Q9Y253); test: Inhibition of human DNA polymerase eta
T1 sequence (whole entry): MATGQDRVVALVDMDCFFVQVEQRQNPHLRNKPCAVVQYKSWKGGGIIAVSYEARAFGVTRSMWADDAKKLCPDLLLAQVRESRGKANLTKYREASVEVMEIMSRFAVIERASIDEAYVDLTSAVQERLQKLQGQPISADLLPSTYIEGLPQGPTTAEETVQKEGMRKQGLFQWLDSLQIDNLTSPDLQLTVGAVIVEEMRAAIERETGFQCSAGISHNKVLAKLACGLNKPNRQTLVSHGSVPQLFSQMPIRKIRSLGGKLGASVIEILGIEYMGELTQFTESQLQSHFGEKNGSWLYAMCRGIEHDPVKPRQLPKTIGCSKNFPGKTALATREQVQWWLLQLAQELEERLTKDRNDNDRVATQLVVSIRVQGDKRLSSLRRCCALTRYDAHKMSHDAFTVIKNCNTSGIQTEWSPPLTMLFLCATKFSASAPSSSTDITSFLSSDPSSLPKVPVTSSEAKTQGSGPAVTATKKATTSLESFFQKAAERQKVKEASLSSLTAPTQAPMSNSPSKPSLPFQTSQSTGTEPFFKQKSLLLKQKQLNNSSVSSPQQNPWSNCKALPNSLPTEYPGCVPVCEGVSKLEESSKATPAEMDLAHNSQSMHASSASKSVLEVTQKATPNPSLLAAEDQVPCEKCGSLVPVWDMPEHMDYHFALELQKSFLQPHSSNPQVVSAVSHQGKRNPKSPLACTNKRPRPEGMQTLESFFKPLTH

[7] = target: T1, DNA polymerase eta (Homo sapiens); test: Inhibition of human DNA polymerase eta at 100 uM
[8] = species: Homo sapiens; test: Inhibition of human DNA polymerase gamma at 100 uM
[9] = species: Homo sapiens; test: Inhibition of human DNA polymerase delta at 100 uM
[10] = species: Homo sapiens; test: Inhibition of human DNA polymerase epsilon at 100 uM
[11] = target: T2, DNA polymerase kappa (Homo sapiens) (UniProt Q9UBT6); test: Inhibition of human DNA polymerase kappa
T2 sequence (whole entry): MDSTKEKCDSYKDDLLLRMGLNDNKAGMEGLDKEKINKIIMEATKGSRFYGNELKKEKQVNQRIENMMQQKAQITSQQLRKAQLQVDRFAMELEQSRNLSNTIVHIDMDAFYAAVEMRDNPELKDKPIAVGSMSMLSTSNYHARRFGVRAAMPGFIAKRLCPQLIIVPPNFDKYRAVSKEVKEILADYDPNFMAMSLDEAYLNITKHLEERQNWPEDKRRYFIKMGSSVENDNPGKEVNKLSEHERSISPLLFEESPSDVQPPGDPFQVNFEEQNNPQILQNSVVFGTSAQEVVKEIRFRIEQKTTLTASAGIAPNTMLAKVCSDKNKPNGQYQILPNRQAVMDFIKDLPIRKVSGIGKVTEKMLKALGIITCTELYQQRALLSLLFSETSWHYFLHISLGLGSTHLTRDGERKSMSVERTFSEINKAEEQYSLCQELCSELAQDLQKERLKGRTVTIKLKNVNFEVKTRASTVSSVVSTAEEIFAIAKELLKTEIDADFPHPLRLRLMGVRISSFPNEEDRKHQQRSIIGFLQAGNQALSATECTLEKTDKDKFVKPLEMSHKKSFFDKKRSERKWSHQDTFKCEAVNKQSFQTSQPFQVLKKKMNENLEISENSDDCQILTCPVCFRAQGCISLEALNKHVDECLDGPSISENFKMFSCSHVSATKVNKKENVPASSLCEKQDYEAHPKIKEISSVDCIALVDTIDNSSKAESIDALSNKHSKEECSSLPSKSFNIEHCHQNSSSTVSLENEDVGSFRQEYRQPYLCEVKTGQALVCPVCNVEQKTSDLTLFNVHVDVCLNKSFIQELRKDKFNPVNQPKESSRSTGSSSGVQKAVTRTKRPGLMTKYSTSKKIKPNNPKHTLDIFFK

[12] = target: T3, DNA polymerase iota (Mus musculus) (UniProt Q6R3M4); test: Inhibition of mouse DNA polymerase iota
T3 sequence (whole entry): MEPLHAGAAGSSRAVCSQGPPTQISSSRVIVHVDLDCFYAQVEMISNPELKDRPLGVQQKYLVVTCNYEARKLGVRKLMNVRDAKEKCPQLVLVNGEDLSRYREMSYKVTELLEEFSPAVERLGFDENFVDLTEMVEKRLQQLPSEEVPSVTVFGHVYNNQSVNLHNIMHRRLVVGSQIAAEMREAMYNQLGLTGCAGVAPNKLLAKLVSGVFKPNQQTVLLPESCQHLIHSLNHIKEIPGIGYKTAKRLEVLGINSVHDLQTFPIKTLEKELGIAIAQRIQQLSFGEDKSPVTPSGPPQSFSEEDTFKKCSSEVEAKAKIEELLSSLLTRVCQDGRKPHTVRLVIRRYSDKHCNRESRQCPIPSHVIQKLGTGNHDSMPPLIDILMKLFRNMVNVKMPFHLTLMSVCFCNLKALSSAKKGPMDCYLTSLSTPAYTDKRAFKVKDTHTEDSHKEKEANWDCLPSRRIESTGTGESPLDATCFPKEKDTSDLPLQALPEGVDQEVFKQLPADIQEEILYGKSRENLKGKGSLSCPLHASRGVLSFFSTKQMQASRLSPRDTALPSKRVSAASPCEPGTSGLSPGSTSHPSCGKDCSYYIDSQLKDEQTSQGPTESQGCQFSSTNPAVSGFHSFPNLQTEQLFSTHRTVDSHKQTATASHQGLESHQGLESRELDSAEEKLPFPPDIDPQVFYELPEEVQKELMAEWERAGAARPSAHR

[13] = tested on: Thermus aquaticus; test: Inhibition of Taq DNA polymerase at 100 uM
[14] = target: Inosine-5'-monophosphate dehydrogenase 2 (Mus musculus) (UniProt P24547); test: Inhibition of mouse IMP dehydrogenase 2 at 100 uM
Sequence of Inosine-5'-monophosphate dehydrogenase 2 (Mus musculus) (P24547 whole entry, looked up): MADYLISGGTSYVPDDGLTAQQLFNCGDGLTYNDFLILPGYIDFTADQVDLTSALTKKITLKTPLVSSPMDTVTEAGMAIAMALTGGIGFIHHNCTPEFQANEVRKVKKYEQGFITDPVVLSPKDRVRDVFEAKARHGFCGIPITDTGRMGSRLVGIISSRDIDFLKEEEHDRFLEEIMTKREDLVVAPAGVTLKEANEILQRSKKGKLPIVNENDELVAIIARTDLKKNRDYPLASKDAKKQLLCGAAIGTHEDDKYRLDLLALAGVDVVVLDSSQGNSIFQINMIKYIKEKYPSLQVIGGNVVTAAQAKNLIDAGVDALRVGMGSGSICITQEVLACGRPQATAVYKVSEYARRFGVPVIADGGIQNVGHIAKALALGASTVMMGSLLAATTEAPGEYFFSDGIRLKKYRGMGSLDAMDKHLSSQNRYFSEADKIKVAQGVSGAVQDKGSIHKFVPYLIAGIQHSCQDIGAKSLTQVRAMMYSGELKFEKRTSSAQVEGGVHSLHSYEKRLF

[15] = target: Deoxyribonuclease-1 (Bos taurus) (UniProt P00639); test: Inhibition of bovine deoxyribonuclease 1 at 100 uM
Sequence of Deoxyribonuclease-1 (Bos taurus) (P00639 whole entry): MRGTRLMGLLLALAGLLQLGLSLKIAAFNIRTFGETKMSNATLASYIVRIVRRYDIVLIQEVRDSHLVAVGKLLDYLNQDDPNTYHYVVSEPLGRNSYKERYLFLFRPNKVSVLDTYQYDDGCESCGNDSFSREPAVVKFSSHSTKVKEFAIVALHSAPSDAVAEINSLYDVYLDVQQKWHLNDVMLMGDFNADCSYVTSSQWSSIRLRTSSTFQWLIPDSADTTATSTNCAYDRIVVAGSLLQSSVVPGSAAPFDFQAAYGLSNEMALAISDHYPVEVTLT

[16] = target: DNA topoisomerase 1 (Homo sapiens) (UniProt P11387); test: Inhibition of human DNA topoisomerase 1 at 100 uM
Sequence of DNA topoisomerase 1 (Homo sapiens) (P11387 whole entry): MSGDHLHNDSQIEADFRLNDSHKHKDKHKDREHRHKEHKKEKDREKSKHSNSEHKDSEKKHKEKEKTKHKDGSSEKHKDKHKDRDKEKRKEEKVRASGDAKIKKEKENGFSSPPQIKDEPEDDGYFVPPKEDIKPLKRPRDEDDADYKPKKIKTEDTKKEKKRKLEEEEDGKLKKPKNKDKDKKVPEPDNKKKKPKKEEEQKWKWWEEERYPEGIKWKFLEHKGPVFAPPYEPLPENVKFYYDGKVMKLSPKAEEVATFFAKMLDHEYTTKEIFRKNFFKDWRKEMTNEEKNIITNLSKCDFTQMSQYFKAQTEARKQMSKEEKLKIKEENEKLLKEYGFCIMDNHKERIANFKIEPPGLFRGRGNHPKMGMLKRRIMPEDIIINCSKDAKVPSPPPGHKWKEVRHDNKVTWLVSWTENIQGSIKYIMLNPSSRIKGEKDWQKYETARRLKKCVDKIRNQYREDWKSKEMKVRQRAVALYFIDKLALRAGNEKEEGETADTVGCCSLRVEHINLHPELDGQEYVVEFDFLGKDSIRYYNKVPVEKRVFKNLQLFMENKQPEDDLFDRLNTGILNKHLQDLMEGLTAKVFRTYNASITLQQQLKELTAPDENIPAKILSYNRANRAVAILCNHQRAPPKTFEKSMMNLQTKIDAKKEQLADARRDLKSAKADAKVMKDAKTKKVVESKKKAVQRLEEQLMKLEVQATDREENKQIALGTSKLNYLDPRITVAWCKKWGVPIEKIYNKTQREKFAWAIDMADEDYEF

[17] = tested on: Drosophila melanogaster; test: Inhibition of fruit fly DNA polymerase epsilon at 100 uM
[18] = target: DNA polymerase beta (Rattus norvegicus) (UniProt P06766); test: Inhibition of rat DNA polymerase beta at 100 uM
[19] = tested on: Drosophila melanogaster; test: Inhibition of fruit fly DNA polymerase delta at 100 uM
[20] = target: Telomerase reverse transcriptase (Homo sapiens) (UniProt O14746); test: Inhibition of human telomerase at 100 uM
Sequence of Telomerase reverse transcriptase (Homo sapiens) (O14746 whole entry): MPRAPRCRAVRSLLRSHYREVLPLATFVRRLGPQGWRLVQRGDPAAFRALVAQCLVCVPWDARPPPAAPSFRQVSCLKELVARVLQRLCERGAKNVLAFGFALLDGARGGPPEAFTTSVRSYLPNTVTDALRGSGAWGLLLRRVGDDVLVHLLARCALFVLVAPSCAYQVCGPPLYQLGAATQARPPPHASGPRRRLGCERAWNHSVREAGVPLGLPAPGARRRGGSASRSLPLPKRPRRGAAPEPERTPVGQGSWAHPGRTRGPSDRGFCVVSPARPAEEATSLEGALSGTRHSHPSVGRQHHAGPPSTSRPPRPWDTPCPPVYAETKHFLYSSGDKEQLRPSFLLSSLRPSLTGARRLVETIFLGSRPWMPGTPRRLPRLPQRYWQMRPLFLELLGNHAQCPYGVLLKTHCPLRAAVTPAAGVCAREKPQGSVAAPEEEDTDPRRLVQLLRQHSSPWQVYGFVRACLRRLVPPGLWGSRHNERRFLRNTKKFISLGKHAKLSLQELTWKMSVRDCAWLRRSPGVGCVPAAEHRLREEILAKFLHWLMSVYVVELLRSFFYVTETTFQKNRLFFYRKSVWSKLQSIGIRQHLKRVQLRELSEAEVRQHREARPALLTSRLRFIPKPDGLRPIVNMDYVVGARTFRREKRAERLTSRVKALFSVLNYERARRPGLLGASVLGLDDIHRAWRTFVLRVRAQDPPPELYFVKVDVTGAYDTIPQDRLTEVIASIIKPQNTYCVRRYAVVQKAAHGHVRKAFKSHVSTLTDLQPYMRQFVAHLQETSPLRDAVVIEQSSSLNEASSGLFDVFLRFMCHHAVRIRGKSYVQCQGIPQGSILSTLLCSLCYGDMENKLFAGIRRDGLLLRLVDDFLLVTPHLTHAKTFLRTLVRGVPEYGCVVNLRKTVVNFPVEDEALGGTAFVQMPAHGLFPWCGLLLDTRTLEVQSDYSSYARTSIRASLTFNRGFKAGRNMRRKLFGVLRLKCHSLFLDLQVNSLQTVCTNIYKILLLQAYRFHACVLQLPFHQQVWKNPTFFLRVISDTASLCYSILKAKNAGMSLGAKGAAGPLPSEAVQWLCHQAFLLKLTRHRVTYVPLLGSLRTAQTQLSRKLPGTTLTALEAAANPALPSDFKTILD

[21] = target: DNA-directed DNA polymerase (Enterobacteria phage T4) (UniProt P04415); test: Inhibition of Enterobacteria phage T4 DNA polymerase at 100 uM; conditions: Tequatrovirus T4
Sequence of DNA-directed DNA polymerase (Enterobacteria phage T4) (P04415 whole entry): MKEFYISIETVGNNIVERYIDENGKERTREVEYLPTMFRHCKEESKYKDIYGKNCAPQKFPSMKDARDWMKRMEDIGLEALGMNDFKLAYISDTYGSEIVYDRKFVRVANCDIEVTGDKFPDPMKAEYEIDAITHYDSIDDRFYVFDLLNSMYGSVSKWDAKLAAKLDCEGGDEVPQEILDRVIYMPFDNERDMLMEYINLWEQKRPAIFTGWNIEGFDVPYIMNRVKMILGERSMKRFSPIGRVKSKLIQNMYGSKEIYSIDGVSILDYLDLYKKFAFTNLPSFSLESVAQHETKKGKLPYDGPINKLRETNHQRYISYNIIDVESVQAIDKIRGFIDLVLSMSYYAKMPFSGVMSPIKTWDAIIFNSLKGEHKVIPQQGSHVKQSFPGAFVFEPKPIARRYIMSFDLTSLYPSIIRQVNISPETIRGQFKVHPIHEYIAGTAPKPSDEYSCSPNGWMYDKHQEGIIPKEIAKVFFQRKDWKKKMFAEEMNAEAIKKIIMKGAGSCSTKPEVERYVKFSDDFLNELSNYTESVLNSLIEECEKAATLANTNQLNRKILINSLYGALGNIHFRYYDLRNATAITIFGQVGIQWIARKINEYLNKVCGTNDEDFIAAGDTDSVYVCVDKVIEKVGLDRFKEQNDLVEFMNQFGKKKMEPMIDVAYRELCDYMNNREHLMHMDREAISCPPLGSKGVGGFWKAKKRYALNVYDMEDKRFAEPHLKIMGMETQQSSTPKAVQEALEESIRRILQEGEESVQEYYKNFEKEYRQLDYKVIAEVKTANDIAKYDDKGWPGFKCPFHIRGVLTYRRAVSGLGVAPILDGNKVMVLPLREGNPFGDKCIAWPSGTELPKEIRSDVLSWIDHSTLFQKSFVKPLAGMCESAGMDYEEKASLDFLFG

[22] = target: T3, DNA polymerase iota (Mus musculus); test: Inhibition of mouse DNA polymerase iota at 100 uM
[23] = tested on: Drosophila melanogaster; test: Inhibition of fruit fly DNA polymerase alpha at 100 uM
[24] = species: Homo sapiens; test: Inhibition of human DNA topoisomerase 2 at 100 uM
[25] = target: DNA polymerase lambda (Homo sapiens) (UniProt Q9UGP5); test: Inhibition of human DNA polymerase lambda at 100 uM
Sequence of DNA polymerase lambda (Homo sapiens) (Q9UGP5 whole entry, the tested form may be a part): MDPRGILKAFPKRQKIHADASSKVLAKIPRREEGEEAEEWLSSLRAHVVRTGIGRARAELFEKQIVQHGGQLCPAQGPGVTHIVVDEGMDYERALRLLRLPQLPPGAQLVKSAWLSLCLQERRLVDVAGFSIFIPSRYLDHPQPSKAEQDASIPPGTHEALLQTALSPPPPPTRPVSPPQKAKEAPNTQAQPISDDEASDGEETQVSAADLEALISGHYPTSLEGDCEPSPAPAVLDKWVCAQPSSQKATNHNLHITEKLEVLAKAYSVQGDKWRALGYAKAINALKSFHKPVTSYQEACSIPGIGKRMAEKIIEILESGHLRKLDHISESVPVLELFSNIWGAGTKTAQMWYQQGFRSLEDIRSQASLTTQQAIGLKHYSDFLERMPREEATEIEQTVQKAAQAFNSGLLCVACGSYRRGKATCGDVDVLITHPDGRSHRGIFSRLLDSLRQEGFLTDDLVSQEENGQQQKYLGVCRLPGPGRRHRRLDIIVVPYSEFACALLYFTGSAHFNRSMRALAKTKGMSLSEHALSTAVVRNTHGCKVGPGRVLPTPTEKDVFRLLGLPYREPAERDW

[26] = tested on: Escherichia coli; test: Inhibition of Escherichia coli DNA polymerase 1 Klenow fragment at 100 uM
[27] = species: Bos taurus; test: Inhibition of calf primase of DNA polymerase alpha at 100 uM
[28] = target: Human immunodeficiency virus type 1 reverse transcriptase (Human immunodeficiency virus 1) (UniProt Q72547); test: Inhibition of HIV-1 reverse transcriptase at 100 uM
[29] = target: T2, DNA polymerase kappa (Homo sapiens); test: Inhibition of human DNA polymerase kappa at 100 uM
[30] = tested on: Escherichia phage T7; test: Inhibition of Enterobacteria phage T7 RNA polymerase at 100 uM
[31] = tested on: Oryza sativa; test: Inhibition of rice DNA polymerase lambda at 100 uM

Measured: Activity

COC1=C(C(=O)CC(C)O)C(=O)C(C)(/C=C/C=C/C(C)O)O1 (stereo unspecified)
active: [6] Dose-dependent effect | [7] | [11] Dose-dependent effect | [12] Dose-dependent effect | [22] | [29]
not listed: [31]
inactive: all other assays above

C/C=C/C(=O)C1=C(OC)OC(C)(/C=C/C=C/C(C)O)C1=O (stereo unspecified)
active: [6] Dose-dependent effect | [7] | [11] Dose-dependent effect | [12] Dose-dependent effect | [22] | [29]
inactive: all other assays above
